From patent US11254686B1 (Corvus Pharmaceuticals, Inc., priority 2017, dated 2022)

Key:
Type in all cases: biochemical
adenosine A2B receptor = adenosine A2B receptor (Homo sapiens (Human), UniProt P29275); experiment: Adenosine receptor activity assay (Table 1), A2B activity; conditions: for Ratio: A2A activity to the A2B activity, A2A/A2B; for IC50: read-out: Ave A2B cAMP IC50
adenosine A3 receptor = adenosine A3 receptor (Homo sapiens (Human), UniProt P0DMS8); experiment: Adenosine receptor activity assay (Table 1), A3 cAMP
Sequence of adenosine A3 receptor (P0DMS8 whole entry): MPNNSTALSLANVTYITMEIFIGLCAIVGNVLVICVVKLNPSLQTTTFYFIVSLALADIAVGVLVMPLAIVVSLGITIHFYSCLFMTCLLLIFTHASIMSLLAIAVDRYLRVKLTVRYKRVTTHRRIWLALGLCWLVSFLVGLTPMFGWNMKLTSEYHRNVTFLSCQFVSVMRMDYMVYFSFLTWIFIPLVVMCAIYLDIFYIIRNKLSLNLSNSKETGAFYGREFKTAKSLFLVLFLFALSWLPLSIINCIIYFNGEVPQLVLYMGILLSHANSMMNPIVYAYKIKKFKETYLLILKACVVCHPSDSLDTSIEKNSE
Protocol: (§1) Table 1. Compounds (e.g., Adenosine Receptor modulators) and activity assay results. The legend is as follows: A=<10 nM; B=10-50 nM; C=50-100 nM; D=100-500; and E=>500 nM. The ratio corresponds to the A2A activity to the A2B activity; or A2A/A2B.

adenosine A2A receptor = adenosine A2A receptor (Homo sapiens (Human), UniProt P29274); experiment: Adenosine receptor activity assay (Table 1), A2A activity; conditions: read-out: Ave A2A cAMP IC50
Sequence of adenosine A2A receptor (P29274 whole entry): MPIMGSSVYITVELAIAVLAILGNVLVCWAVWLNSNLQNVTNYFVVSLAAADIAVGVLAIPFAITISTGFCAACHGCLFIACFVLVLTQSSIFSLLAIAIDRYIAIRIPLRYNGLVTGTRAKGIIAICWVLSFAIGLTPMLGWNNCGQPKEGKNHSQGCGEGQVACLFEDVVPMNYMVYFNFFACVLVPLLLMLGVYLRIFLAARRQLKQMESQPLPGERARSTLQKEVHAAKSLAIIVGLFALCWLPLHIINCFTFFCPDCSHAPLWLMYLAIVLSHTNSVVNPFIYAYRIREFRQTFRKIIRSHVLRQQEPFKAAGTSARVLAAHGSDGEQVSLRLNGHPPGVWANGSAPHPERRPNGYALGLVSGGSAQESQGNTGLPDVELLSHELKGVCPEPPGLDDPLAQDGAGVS

adenosine A1 receptor = adenosine A1 receptor (Homo sapiens (Human), UniProt P30542); experiment: Adenosine receptor activity assay (Table 1), A1 cAMP
Sequence of adenosine A1 receptor (P30542 whole entry): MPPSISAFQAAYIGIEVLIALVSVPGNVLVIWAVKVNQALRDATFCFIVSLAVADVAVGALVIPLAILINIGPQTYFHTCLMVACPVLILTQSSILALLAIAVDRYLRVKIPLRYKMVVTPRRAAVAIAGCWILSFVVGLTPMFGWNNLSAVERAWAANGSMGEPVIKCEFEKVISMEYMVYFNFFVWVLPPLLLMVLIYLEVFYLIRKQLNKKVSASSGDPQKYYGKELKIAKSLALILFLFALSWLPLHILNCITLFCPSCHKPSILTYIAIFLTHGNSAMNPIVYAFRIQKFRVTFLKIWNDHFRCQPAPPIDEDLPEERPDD
Protocol: as §1

Sequence of adenosine A2B receptor (P29275 whole entry): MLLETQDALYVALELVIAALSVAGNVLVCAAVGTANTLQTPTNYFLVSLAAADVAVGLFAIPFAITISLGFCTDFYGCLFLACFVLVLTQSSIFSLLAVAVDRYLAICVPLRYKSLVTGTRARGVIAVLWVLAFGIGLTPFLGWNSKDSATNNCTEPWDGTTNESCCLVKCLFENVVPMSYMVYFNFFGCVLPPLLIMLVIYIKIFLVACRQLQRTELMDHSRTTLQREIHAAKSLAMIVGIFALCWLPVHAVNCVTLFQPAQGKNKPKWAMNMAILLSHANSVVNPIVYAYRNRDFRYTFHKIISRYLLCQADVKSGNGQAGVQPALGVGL

Row | Compound | Ratio (adenosine A2B receptor) | IC50 (adenosine A2B receptor) | IC50 (adenosine A3 receptor) | IC50 (adenosine A2A receptor) | IC50 (adenosine A1 receptor)
1 | C[C@H](Nc1nc(C(=O)N2CC(CNS(C)(=O)=O)C2)c2sccc2n1)c1cncc(F)c1 [Example Z531, (S)—N-((1-(2-((1-(5-Fluoropyridin-3-yl)ethyl)amino)thieno[3,2-d]pyrimidine-4-carbonyl)azetidin-3-yl)methyl)methanesulfonamide] | 19.43 | 10 to 50 nM | > 500 nM | 100 to 500 nM | > 500 nM
2 | CC(=O)N[C@@H]1CCN(C(=O)c2nc(N[C@@H](C)c3cncc(F)c3)nc3cc(C)sc23)C1 [Example Z532, N—((R)-1-(2-(((S)-1-(5-Fluoropyridin-3-yl)ethyl)amino)-6-methylthieno[3,2-d]pyrimidine-4-carbonyl)pyrrolidin-3-yl)acetamide] | 149.69 | 10 to 50 nM | > 500 nM | > 500 nM | > 500 nM
3 | Cc1cc2nc(N[C@@H](C)c3cncc(F)c3)nc(C(=O)NCCC3CN(C)C3)c2s1 [Example Z535, (S)-2-((1-(5-Fluoropyridin-3-yl)ethyl)amino)-6-methyl-N-(2-(1-methylazetidin-3-yl)ethyl)thieno[3,2-d]pyrimidine-4-carboxamide] | 244.67 | 10 to 50 nM | > 500 nM | > 500 nM | > 500 nM
4 | Cc1cc2nc(N[C@@H](C)c3cncc(F)c3)nc(C(=O)N3CC(N4CCCC4)C3)c2s1 [Example Z540, (S)-(2-((1-(5-Fluoropyridin-3-yl)ethyl)amino)-6-methylthieno[3,2-d]pyrimidin-4-yl)(3-(pyrrolidin-1-yl)azetidin-1-yl)methanone] | 33.20 | 10 to 50 nM | > 500 nM | 100 to 500 nM | > 500 nM
5 | Cc1cc2nc(N[C@@H](C)c3cncc(F)c3)nc(C(=O)N3CC(NC(=O)C4CCCO4)C3)c2s1 (stereo partly drawn) [Example Z541, N-(1-(2-(((S)-1-(5-Fluoropyridin-3-yl)ethyl)amino)-6-methylthieno[3,2-d]pyrimidine-4-carbonyl)azetidin-3-yl)tetrahydrofuran-2-carboxamide] | 1.64 | 10 to 50 nM | 100 to 500 nM | 10 to 50 nM | 100 to 500 nM
6 | Cc1cc2nc(N[C@@H](C)c3cncc(F)c3)nc(C(=O)N3CC(NC(=O)C4CCC4)C3)c2s1 [Example Z542, (S)—N-(1-(2-((1-(5-Fluoropyridin-3-yl)ethyl)amino)-6-methylthieno[3,2-d]pyrimidine-4-carbonyl)azetidin-3-yl)cyclobutanecarboxamide] | 1.45 | 10 to 50 nM | 50 to 100 nM | 10 to 50 nM | > 500 nM
7 | CC(=O)NC1CN(C(=O)c2nc(N[C@@H](C)c3cncc(F)c3)nc3cc(C)sc23)C1 [Example Z543, (S)—N-(1-(2-((1-(5-Fluoropyridin-3-yl)ethyl)amino)-6-methylthieno[3,2-d]pyrimidine-4-carbonyl)azetidin-3-yl)acetamide] | 18.71 | – | > 500 nM | 100 to 500 nM | > 500 nM
8 | Cc1cc2nc(N[C@@H](C)c3cncc(F)c3)nc(C(=O)N3CC(NC(=O)c4ccoc4)C3)c2s1 [Example Z546, (S)—N-(1-(2-((1-(5-Fluoropyridin-3-yl)ethyl)amino)-6-methylthieno[3,2-d]pyrimidine-4-carbonyl)azetidin-3-yl)furan-3-carboxamide] | 3.52 | < 10 nM | > 500 nM | 10 to 50 nM | > 500 nM
9 | C[C@H](Nc1nc(C(=O)N2CCC(C(=O)NOC(C)(C)C)C2)c2sccc2n1)c1cncc(F)c1 (stereo partly drawn) [Example Z549, N-(tert-Butoxy)-1-(2-(((S)-1-(5-fluoropyridin-3-yl)ethyl)amino)thieno[3,2-d]pyrimidine-4-carbonyl)pyrrolidine-3-carboxamide] | 0.63 | 10 to 50 nM | > 500 nM | < 10 nM | > 500 nM
10 | C[C@H](Nc1nc(C(=O)N2CC(CN(C)C(=O)C(C)(C)C)C2)c2sccc2n1)c1cncc(F)c1 [Example Z551, (S)—N-((1-(2-((1-(5-Fluoropyridin-3-yl)ethyl)amino)thieno[3,2-d]pyrimidine-4-carbonyl)azetidin-3-yl)methyl)-N-methylpivalamide] | 1.68 | 10 to 50 nM | > 500 nM | 10 to 50 nM | > 500 nM

Further lines, results first:

Row | Ratio (adenosine A2B receptor) | IC50 (adenosine A2B receptor) | IC50 (adenosine A3 receptor) | IC50 (adenosine A2A receptor) | IC50 (adenosine A1 receptor) | Compound
11 | 2.32 | 10 to 50 nM | 100 to 500 nM | 10 to 50 nM | > 500 nM | Cc1cc2nc(N[C@@H](C)c3ccccn3)nc(C(=O)N3CC(C(=O)OC(C)(C)C)C3)c2s1 [Example Z552, tert-Butyl (S)-1-(6-methyl-2-((1-(pyridin-2-yl)ethyl)amino)thieno[3,2-d]pyrimidine-4-carbonyl)azetidine-3-carboxylate]
12 | 3.87 | < 10 nM | 100 to 500 nM | 10 to 50 nM | > 500 nM | COCC1CN(C(=O)c2nc(N[C@@H](C)c3ccccn3)nc3c(C)csc23)C1 [Example Z553, (S)-(3-(methoxymethyl)azetidin-1-yl)(7-methyl-2-((1-(pyridin-2-yl)ethyl)amino)thieno[3,2-d]pyrimidin-4-yl)methanone]
13 | 547.59 | < 10 nM | > 500 nM | > 500 nM | > 500 nM | Cc1cc2nc(N[C@@H](C)c3cncc(F)c3)nc(C(=O)N3CC[C@H](CN)C3)c2s1 [Example Z554, ((R)-3-(Aminomethyl)pyrrolidin-1-yl)(2-(((S)-1-(5-fluoropyridin-3-yl)ethyl)amino)-6-methylthieno[3,2-d]pyrimidin-4-yl)methanone]
14 | 1.92 | 10 to 50 nM | > 500 nM | 10 to 50 nM | > 500 nM | C[C@H](Nc1nc(C(=O)N2CC(NC(=O)CC(C)(C)C)C2)c2sccc2n1)c1cncc(F)c1 [Example Z557, (S)—N-(1-(2-((1-(5-Fluoropyridin-3-yl)ethyl)amino)thieno[3,2-d]pyrimidine-4-carbonyl)azetidin-3-yl)-3,3-dimethylbutanamide]
15 | 3.43 | < 10 nM | > 500 nM | 10 to 50 nM | > 500 nM | CC(C)C(=O)NC1CN(C(=O)c2nc(N[C@@H](C)c3cncc(F)c3)nc3ccsc23)C1 [Example Z558, (S)—N-(1-(2-((1-(5-Fluoropyridin-3-yl)ethyl)amino)thieno[3,2-d]pyrimidine-4-carbonyl)azetidin-3-yl)isobutyramide]
16 | 1.93 | 10 to 50 nM | 100 to 500 nM | 10 to 50 nM | > 500 nM | Cc1csc2c(C(=O)N3CC(NC(=O)C(C)(C)C)C3)nc(N[C@@H](C)c3ccccn3)nc12 [Example Z559, (S)—N-(1-(7-Methyl-2-((1-(pyridin-2-yl)ethyl)amino)thieno[3,2-d]pyrimidine-4-carbonyl)azetidin-3-yl)pivalamide]
17 | 59.47 | 50 to 100 nM | > 500 nM | > 500 nM | > 500 nM | CN[C@@H]1CCN(C(=O)c2nc(N[C@@H](C)c3cncc(F)c3)nc3cc(C)sc23)C1 [Example Z560, (2-(((S)-1-(5-Fluoropyridin-3-yl)ethyl)amino)-6-methylthieno[3,2-d]pyrimidin-4-yl)((R)-3-(methylamino)pyrrolidin-1-yl)methanone]
18 | 140.19 | 50 to 100 nM | > 500 nM | > 500 nM | > 500 nM | CN[C@H]1CCN(C(=O)c2nc(N[C@@H](C)c3cncc(F)c3)nc3cc(C)sc23)C1 [Example Z561, (2-(((S)-1-(5-Fluoropyridin-3-yl)ethyl)amino)-6-methylthieno[3,2-d]pyrimidin-4-yl)((S)-3-(methylamino)pyrrolidin-1-yl)methanone]
19 | 127.97 | 10 to 50 nM | > 500 nM | > 500 nM | > 500 nM | Cc1cc2nc(N[C@@H](C)c3cncc(F)c3)nc(C(=O)NCCC3CCN(C)CC3)c2s1 [Example Z562, (S)-2-((1-(5-Fluoropyridin-3-yl)ethyl)amino)-6-methyl-N-(2-(1-methylpiperidin-4-yl)ethyl)thieno[3,2-d]pyrimidine-4-carboxamide]
20 | 1.51 | 10 to 50 nM | > 500 nM | 10 to 50 nM | > 500 nM | C[C@H](Nc1nc(C(=O)N2CC(CC(=O)NC(C)(C)C)C2)c2sccc2n1)c1cncc(F)c1 [Example Z571, (S)—N-(tert-Butyl)-2-(1-(2-((1-(5-fluoropyridin-3-yl)ethyl)amino)thieno[3,2-d]pyrimidine-4-carbonyl)azetidin-3-yl)acetamide]
21 | 3.44 | 10 to 50 nM | > 500 nM | 100 to 500 nM | > 500 nM | Cc1cc2nc(N[C@@H](C)c3cncc(F)c3)nc(C(=O)N3CC(C(=O)OC(C)(C)C)C3)c2s1 [Example Z573, tert-Butyl (S)-1-(2-((1-(5-fluoropyridin-3-yl)ethyl)amino)-6-methylthieno[3,2-d]pyrimidine-4-carbonyl)azetidine-3-carboxylate]
22 | 75.64 | < 10 nM | > 500 nM | > 500 nM | > 500 nM | Cc1cc2nc(N[C@@H](C)c3cncc(F)c3)nc(C(=O)N3CC(CS(C)(=O)=O)C3)c2s1 [Example Z575, (S)-(2-((1-(5-Fluoropyridin-3-yl)ethyl)amino)-6-methylthieno[3,2-d]pyrimidin-4-yl)(3-((methylsulfonyl)methyl)azetidin-1-yl)methanone]
